Holding throughout (assay): DTP human tumour cell line panel, 48 h
The test system of experiment [1] is A498.
Experiment [2] has as its system A549.
Experiment [3] relates to CCRF-CEM.
For experiment [4], the system named is DU-145.
Experiment [5] deals with HL-60.
In experiment [6] the test system is MDA-MB-231.
Experiment [7] concerns MDA-MB-435.
The test system of experiment [8] is NCI/ADR-RES.
Experiment [9] relates to OVCAR-3.
The test system of experiment [10] is RPMI-8226.
The test system of experiment [11] is RXF 393.
In experiment [12] the test system is SK-MEL-2.
Experiment [13] has as its system SNB-19.
Experiment [14] concerns SR.
For experiment [15], the system named is SW-620.
Experiment [16] deals with T47D.
Experiment [17] relates to TK-10.
Experiment [18] concerns UACC-257.
For experiment [19], the system named is UACC-62.
Experiment [20] has as its system HOP-92.

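How tested: cells in 96-well plates exposed to compound for 48 hours at five concentrations. GI50 marks 50% less growth.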 Activity calls are given as the source filed them. Rule as the data show it: active = GI50 up to about 1.1 µM and inactive = higher. A value given as a limit tells only on which side of the number the result lay.

For orientation: GI50 means the concentration at which growth is held to half of that of the control. Take `Cc1nc2ccc(Cl)cc2c2c1CCN2c1ccc(F)cc1`: the GI50 in experiment [1] is 0.891 µM (active); in [2] it was 43.5 µM (inactive); in experiment [3], 11.6 µM (inactive); in experiment [4], 58.3 µM (inactive); in [5] it was 17.1 µM (inactive); in experiment [6], 7.48 µM (inactive). The GI50 was 7.05 µM (inactive) in experiment [7]; 13 µM (inactive) in experiment [8]; 21.8 µM (inactive) in experiment [9]; 8.24 µM (inactive) in experiment [10]; 17.1 µM (inactive) in experiment [11]; 23 µM (inactive) in experiment [12]. For the same molecule, the GI50 is 33.1 µM (inactive) in experiment [13]; 13.1 µM (inactive) in experiment [14]; 27.1 µM (inactive) in [15]; 36.1 µM (inactive) in experiment [16]; 18.1 µM (inactive) in experiment [17]; 14.3 µM (inactive) in experiment [18]. For the same molecule, the GI50 in experiment [19] is 15.2 µM (inactive).

With `O=C1NC(O)c2cc3ccccc3cc2O1` (stereo unspecified), the GI50 in experiment [2] is > 100 µM (inactive); in experiment [3] it was 29.2 µM (inactive); in experiment [4], > 100 µM (inactive); in experiment [5] it was 28.4 µM (inactive); in [20] it was 25.6 µM (inactive); in experiment [6], 34.4 µM (inactive). Moreover, the GI50 in experiment [7] is 51.8 µM (inactive); in experiment [8] it was 51.4 µM (inactive); in experiment [9], 26.4 µM (inactive); in [10], 38.5 µM (inactive); in experiment [11], > 100 µM (inactive); in experiment [13], 60 µM (inactive). The GI50 in experiment [14] was 24.3 µM (inactive); in experiment [15] it was 61.1 µM (inactive); in [16] it was 25.5 µM (inactive); in [17], > 100 µM (inactive); in experiment [18] it was 61.1 µM (inactive); in [19], 21.7 µM (inactive).

`O=C(NCCCN1CCN(CCCNC(=O)Nc2cccc3ccccc23)CC1)Nc1cccc2ccccc12`: the GI50 in experiment [1] was 15.3 µM (inactive); in [2], 17.7 µM (inactive); in experiment [3] it was 22.2 µM (inactive); in experiment [4], 16.9 µM (inactive); in experiment [5] it was 16.3 µM (inactive); in experiment [20], 13.8 µM (inactive). For the same molecule, the GI50 in experiment [6] is 2.25 µM (inactive); in experiment [7] it was 16.2 µM (inactive); in experiment [8], 84.9 µM (inactive); in experiment [9], 13.6 µM (inactive); in experiment [10], 17.3 µM (inactive); in experiment [11] it was 11.1 µM (inactive). The GI50 in experiment [12] was 18.7 µM (inactive); in [13], 18.6 µM (inactive); in experiment [15], 8.32 µM (inactive); in experiment [16] it was 13.2 µM (inactive); in experiment [17] it was 14 µM (inactive); in experiment [18] it was 13.2 µM (inactive). In [19], the GI50 was 3.33 µM (inactive).

In the case of `COc1ccc(C(=C(I)c2ccccc2)c2ccc(OC)cc2)cc1`, the GI50 in experiment [2] is > 100 µM (inactive); in experiment [3], > 100 µM (inactive); in experiment [4], > 100 µM (inactive); in experiment [5] it was 64.9 µM (inactive); in [20], > 100 µM (inactive); in [6], > 100 µM (inactive). Besides, the GI50 in experiment [7], in experiment [8], in experiment [9], in [10], in experiment [11] and in experiment [12] was > 100 µM (inactive) throughout. For the same molecule, the GI50 is > 100 µM (inactive) in [13]; > 100 µM (inactive) in [14]; > 100 µM (inactive) in experiment [15]; 19.1 µM (inactive) in experiment [16]; > 100 µM (inactive) in experiment [17]; > 100 µM (inactive) in experiment [18]. Besides, the GI50 in [19] was > 100 µM (inactive).

As for `CCN(C(=O)N[C@@H](Cc1ccccc1)C(=O)N[C@@H](CC(C)C)C(=O)OC)c1ccccc1`, the GI50 in experiment [2] was 30.5 µM (inactive); in experiment [3] it was 19.3 µM (inactive); in [4], 17.3 µM (inactive); in [20] it was 22.2 µM (inactive); in experiment [6], 55.7 µM (inactive); in [7] it was 51.6 µM (inactive). Moreover, the GI50 in [8] was 26.5 µM (inactive); in [9], 26.5 µM (inactive); in [10], 20.1 µM (inactive); in [11], 19.1 µM (inactive); in [12], 61 µM (inactive); in experiment [13] it was 77.6 µM (inactive). Besides, the GI50 in [14] was 6.18 µM (inactive); in experiment [15], 25.4 µM (inactive); in experiment [16], 77.6 µM (inactive); in experiment [17], 33 µM (inactive); in [18], 23.2 µM (inactive); in experiment [19], 17.7 µM (inactive).

In the case of `CC(C)OC(=O)[C@@H](O)[C@H](CO)C1=CC([Si](C)(C)c2ccccc2)=CON1`, the GI50 in [1], in [2], in experiment [4], in experiment [6], in experiment [7] and in experiment [8] was > 100 µM (inactive) throughout. Besides, the GI50 in experiment [9], in experiment [10], in experiment [11], in experiment [12], in [13] and in [14] was > 100 µM (inactive) throughout. Moreover, the GI50 in experiment [15], in [16], in [17], in experiment [18] and in experiment [19] was > 100 µM (inactive) each time.

On to `Oc1cc(N2CCCC2)ccc1/C=N/N1C(=S)N(c2ccccc2)C(=N\c2ccccc2)/C1=N/c1ccccc1`, for which the GI50 in experiment [2] is > 100 µM (inactive); in experiment [4], > 100 µM (inactive); in experiment [20] it was 63.2 µM (inactive); in [6], 48 µM (inactive); in [7], > 100 µM (inactive); in experiment [8] it was > 100 µM (inactive). Moreover, the GI50 is > 100 µM (inactive) in experiment [9]; > 100 µM (inactive) in [10]; 14.2 µM (inactive) in experiment [11]; > 100 µM (inactive) in experiment [12]; 51.4 µM (inactive) in experiment [13]; > 100 µM (inactive) in [14]. In addition, the GI50 in experiment [15] is 87.9 µM (inactive); in [16] it was > 100 µM (inactive); in experiment [17] it was 75 µM (inactive); in [18], > 100 µM (inactive); in experiment [19], 97.7 µM (inactive).

On to `c1ccc([P+](c2ccccc2)(c2ccccc2)c2ccc([P+](c3ccccc3)(c3ccccc3)c3ccccc3)cc2)cc1`, for which the GI50 in experiment [1] was > 100 µM (inactive); in experiment [2], 64.9 µM (inactive); in experiment [3] it was 22.9 µM (inactive); in experiment [4], 52.8 µM (inactive); in [5] it was 16 µM (inactive); in [6], > 100 µM (inactive). The GI50 is 49.5 µM (inactive) in [7]; > 100 µM (inactive) in experiment [8]; 48.2 µM (inactive) in [9]; > 100 µM (inactive) in [10]; 34.8 µM (inactive) in experiment [11]; 34.3 µM (inactive) in [12]. In addition, the GI50 in experiment [13] is 54.1 µM (inactive); in [14], 0.0815 µM (active); in experiment [15], > 100 µM (inactive); in experiment [16] it was 27.9 µM (inactive); in experiment [17], 60.7 µM (inactive); in experiment [18] it was 29.2 µM (inactive). For the same molecule, in experiment [19], the GI50 was 71.6 µM (inactive).

Values taken from ChEMBL document CHEMBL1201862, “PubChem BioAssay data set” (2004).
